How the values were obtained:
neutrophils (PMN) [1] = conditions: mouse, in vivo; cited from earlier work
neutrophils (PMN) [2] = conditions: classical anti-inflammatory drugs; cited from earlier work
monocytes [3] = test: MCP-1-induced monocyte accumulation in peritoneal cavity; type: in vivo; conditions: sc, 0.1 mg/kg per mouse s.c. 1 h prior to MCP-1
Method: Monocyte chemoattractant protein-1 (MCP-1) given i.p. (1 μg) induces a selective accumulation of monocytes which is maximal at the 6 h post-injection (between 1-3 million monocytes per mouse), above the mild effect of the vehicle (0.25 ml of sterile saline) alone. After MCP-1 injection, animals are killed by CO2 exposure, and cavities washed with 3 ml of sterile PBS supplemented with 3 mM EDTA. Cells in the lavage fluids are stained in Turk's solution and differential counting is performed using a light microscope by a scientist unaware of the experimental groups. Monocyte influx is also confirmed by staining with F4/80 and FACS analysis. The effects of ILK inhibitors are determined in groups pre-treated with various concentrations of ILK inhibitor in systemic administration doses in the range of 10-300 mg/kg, administered every 1-4 hours prior to the cytokine, and up to the time of euthanasia (timing dependent on pharmacokinetics of specific ILK inhibitor). […] The positive control is dexamethasone which produces approximately 50% inhibition at the dose of 0.1 mg/kg per mouse given s.c. 1 h prior to MCP-1.

neutrophils (PMN) [4] = test: Zymosan-induced PMN accumulation in mouse peritoneal cavity; type: in vivo
Method: (§1) Zymosan (an insoluble inflammogen derived from the yeast wall, Ajuebor et al. (1998) J. Leukoc. Biol. 63, 108-116) is injected i.p. in mice, control animals receive only sterile saline. Cellular influx into the peritoneal cavities is evaluated either at the 4 h time-point (for PMN) or at 24 h (for monocytes), by killing animals by CO2 exposure, and washing the cavities with 3 ml of sterile PBS supplemented with 3 mM EDTA and 25 U/ml heparin. Cells in the lavage fluids are stained in Turk's solution and differential counting is performed with a light microscope.
PMN influx ranges between 15-20 million cells per mouse, and is sensitive to anti-chemokine (i.e. antibodies to MCP-1) and anti-adhesion reagents (i.e. antibody to CD11b) as well as to more classical anti-inflammatory drugs, e.g. PAF antagonists; indomethacin, 5-lipoxygenase inhibitors, etc. The positive control is dexamethasone, which reduces zymosan-induced PMN influx with an approximate ED50 of 0.9 mg/kg s.c. (given 2 h prior to zymosan). The effects of ILK inhibitors are determined in groups pre-treated with various concentrations of ILK inhibitors, usually in systemic administration doses in the range of 10-300 mg/kg, and usually administered every 1-4 hours prior to the cytokine, and up to the time of euthanasia, (dependent on pharmacokinetics of specific ILK inhibitor).

neutrophils (PMN) [5] = test: IL-1β-induced neutrophil accumulation in mouse dorsal air-pouch; type: in vivo; conditions: sc, given 2 h prior, 4 h, read-out: ED50 for inhibition of IL-1β-induced PMN migration
Method: Acute accumulation of neutrophils (PMN) into a specific tissue site is a hallmark of the inflammatory response, and can be reproduced in vivo in the mouse following IL-1β injection into a preformed s.c. dorsal air-pouch. This model has the advantage of a quick (maximal at 4 h) and intense (between 5 and 8 million PMN per animal) response (Perretti & Flower (1993) J. Immunol. 150:992-999).
Six-day-old air-pouches are formed on the back of mice by injection of 2.5 ml of air on day 0 and day 3. On day 6, 5 ng of murine recombinant IL-1β is injected into the air-pouch, or vehicle only, i.e. 0.5% carboxymethylcellulose in PBS. Cellular influx into the air-pouches is evaluated at the 4 h time-point, by killing animals by CO2 exposure, and washing the cavities with 2 ml of sterile PBS supplemented with 3 mM EDTA and 25 U/ml heparin. Cells in the lavage fluids are stained in Turk's solution and differential counting is done with a light microscope.
This model is not sensitive to indomethacin and BWA4C, but is sensitive to PAF antagonists, anti-adhesion molecule reagents, tachykinin NK1 antagonists, etc. The effects of ILK inhibitors are determined in groups pre-treated with various concentrations of ILK inhibitors in systemic administration doses in the range of 10-300 mg/kg, administered every 1-4 hours prior to the cytokine, and up to the time of euthanasia.

[6] = test system: leukocyte-endothelium interaction; test: Intravital microscopy of IL-1β-inflamed mouse mesenteric vascular bed; type: in vivo; conditions: 0.5 mg/kg s.c. 1 hour prior to IL-1β
Method: Mice are injected i.p. with 20 ng mouse recombinant IL-1β and left at liberty until the beginning of the experiment. Control animals receive sterile saline alone (1 ml per rat i.p.). Animals are anaesthetised with Inactin™, shaved on the neck and abdominal areas, and a tracheotomy is performed to facilitate breathing during the experimentation. Cautery incisions are made along the abdominal line, the mesentery is exposed and placed on a viewing plexiglass stage.
The preparation is mounted on a Zeiss Axioskop and is then transilluminated with a 12-V, 100-W halogen light source. […] A video time-date generator projects the time, date and stopwatch function onto the monitor.
Particular care is taken to assure observation of the mesenteric vascular bed exactly 2 h after injection of the cytokine. Mesenteries are superfused with thermostated (37° C.) bicarbonate-buffered solution (pH=7.4, gassed with 5% CO2/95% N2) at a rate of 2 ml/min. Three to five randomly selected post-capillary venules (diameter between 20-40 μm; length of at least 100 μm) are observed for each rat. Off-line analysis is performed to quantify the extent of cell adhesion (the number of adherent leukocytes in 100 μm length vessel wall), and leukocyte emigration (the number of cells that had emigrated out of the vessel up to 50 μm, 50 to 100 μm and 100-150 μm away from the vessel wall in parallel with 100 μm vessel segments).
IL-1β produces an intense response (>20 adherent cells per 100 μm length) that is modulated in part by endogenous PAF, ICAM-1 and the chemokine CINC. Therefore, agents that interfere with these mediators are identified using this technique. The effects of ILK inhibitors are determined in groups pre-treated with various concentrations of ILK inhibitors, in systemic administration doses in the range of 10-300 mg/kg, and administered every 1-4 hours prior to the cytokine, and up to the 2 hours after (timing dependent on pharmacokinetics of specific ILK inhibitor). Pre-treatment with ILK inhibitors is expected to result in a significant decrease in the number of leucocytes that are recruited.
Mouse mesenteric vascular bed was inflamed with interleukin-1β. The anti-inflammatory properties of KP-401-A (an ILK inhibitor) were compared to dexamethasone (positive control) as determined by intravital microscopy. […]
Cell rolling was measured by white blood cell velocity. Cell adhesion was quantified by counting, for each vessel, the number of adherent neutrophils in a 100 μm length. Leukocyte emigration from the microcirculation into the tissue was quantified by counting the number of cells that had emigrated up to 50 μm away from the wall of the 100 μm vessel segments. […]

monocytes [7] = test: Zymosan-induced monocyte accumulation in peritoneal cavity (24 h); type: in vivo; conditions: Mus musculus, sc, given 2 h prior to zymosan, 24 h time-point
Method: as §1
Monocyte accumulation at the 24 h time-point is in the order of 10-14 million cells per animal. The effect of known drugs on this parameter have not been well investigated, however it is sensitive to anti-chemokine therapy (i.e. antibodies to MCP-1) and to dexamethasone. The latter is the positive control with an approximate ED50 of 0.9 mg/kg s.c. (given 2 h prior to zymosan). The effects of ILK inhibitors are determined in groups pre-treated with various concentrations of ILK inhibitors, usually in systemic administration doses in the range of 10-300 mg/kg, and usually administered every 1-4 hours prior to the cytokine, and up to the 2 hours after (timing dependent on pharmacokinetics of specific ILK inhibitor).

| Structure (SMILES) | sensitivity of IL-1β air-pouch model to the drug (neutrophils (PMN) [1]) | sensitivity of zymosan-induced PMN influx to the drug (neutrophils (PMN) [2]) | inhibition at 0.1 mg/kg (monocytes [3]) | ED50 (neutrophils (PMN) [4]; Mus musculus, Neutrophil, sc, given 2 h prior to zymosan, 4 h time-point, read-out: ED50 for reduction of zymosan-induced PMN influx) | PMN Accumulation (× 10^6 cells) ± SE (neutrophils (PMN) [4]; dose 1.5 mg/kg s.c., 60 min prior to and 60 min following i.p. Zymosan 1 mg/mouse, measured 4 h later, mean ± SE, n = 5) | ED50 (neutrophils (PMN) [5]) | Adherent Cells (no. 100 μm) ([6]; 2 hours after IL-1β) | Emigrated Cells (no. 50 × 100 μm^2) ([6]; 2 hours after IL-1β) | Cell Flux (no. per min) ([6]; observed 2 hours after IL-1β) | Cell Rolling (VWBC) ([6]; white blood cell velocity, 2 hours after IL-1β) | ED50 (monocytes [7]) |
| --- | --- | --- | --- | --- | --- | --- | --- | --- | --- | --- | --- |
| COc1ccc2c(c1)c(CC(=O)O)c(C)n2C(=O)c1ccc(Cl)cc1 [indomethacin] | not sensitive | sensitive |  |  |  |  |  |  |  |  |  |
| CC(=O)N(O)C/C=C/c1cccc(Oc2ccccc2)c1 [BWA4C] | not sensitive |  |  |  |  |  |  |  |  |  |  |
| C[C@@H]1C[C@H]2[C@@H]3CCC4=CC(=O)C=C[C@]4(C)[C@@]3(F)[C@@H](O)C[C@]2(C)[C@@]1(O)C(=O)CO [dexamethasone] |  |  | ~50% | ~0.9 mg/kg | 4.0 ± 0.79 × 10^6 cells | ~0.15 mg/kg | 1.4 ± 0.1 no. 100 μm | 1.8 ± 0.3 no. 50 × 100 μm^2 | 7.0 ± 1.5 no. per min | 17 ± 2.5 | ~0.9 mg/kg |

Reference: patent publication US20030013640A1, “Integrin linked kinase modulation of leukocyte trafficking” (priority 2001, published 2003)
